Literature values as cited in patent US12220439B2, “Methods of diagnosing and treating dry eye syndrome and compositions for treating a human eye” (Akrivista LLC, priority 2017, dated 2025).

What was measured:
HLA-DR = settings: dry eye disease biomarker
corneal cells = settings: concentrations from about 0.004% to about 0.02% (w/v)
Pseudomonas aeruginosa = settings: strains of Pseudomonas aeruginosa

Molecule	HLA-DR presence on treatment (HLA-DR)	effect on corneal epithelium (corneal cells)	effectiveness against potential contaminants (Pseudomonas aeruginosa)
C[C@@H]1CCN(C(=O)CC#N)C[C@@H]1N(C)c1ncnc2[nH]ccc12 [tofacitinib]	Presence decreased with CsA	–	–
benzalkonium chloride [BAK]	–	can lead to corneal epithelial separation	not effective
